Data taken from publication PMC6696115, “Characterization of Antimicrobial, Antioxidant, and Leishmanicidal Activities of Schiff Base Derivatives of 4-Aminoantipyrine” (Molecules, 2019).
In brackets after ≈: the same amount, converted by molar mass.

What was measured:
[1] = tested on: Aspergillus niger ATCC 6275; assay: antimicrobial serial microdilution, A. niger; format: cell-based; conditions: for MIC: Aspergillus niger, ATCC6275, serial microdilution, 96-well plates, 35 °C, 48 h, max 2% DMSO
Experimental: (§1) The in vitro antifungal and antimicrobial activities were determined by testing the Schiff bases against the fungi Saccharomyces cerevisiae, Candida albicans, and Aspergillus niger and the bacteria Staphylococcus aureus, Enterococcus faecalis (Gram-positive), Pseudomonas aeruginosa, and Escherichia coli (Gram-negative).
(§2) The bacterial inoculum was prepared by emulsifying overnight colonies from an agar medium in broth (Mueller–Hinton broth). The suspensions were adjusted to a final organism density of 5 × 10^5 colony former units (cfu)/mL. […] The emulsifying of A. niger cultures was done by pouring 5 mL of saline and 0.1% of polysorbate 80 over the Petri dishes. Then, 100 µL of this suspension were diluted in 5 mL of saline and adjusted to an optical density of 0.1 at 530 nm. For S. cerevisiae, fresh exponential YPAD (yeast extract 1%, peptone 2%, adenine 0.004%, […]) cultures were adjusted to an optical density of 0.5 at 600 nm, and then diluted to the equivalent of 1 × 10^4 cells/mL (10^−3 dilution). Stock solutions of Schiff bases were prepared by dissolving them in DMSO at 10 mg/mL. […] The range of concentrations used was empirically selected for each organisms and the Schiff base. Drug sensitivities were assayed by serial dilutions in 96-well plates as previously described. A row with media and cells but without drug was the positive control. The blank was done by preparing a row with media and drugs, but without cells. Plates were fitted with a tight lid before incubation to prevent desiccation. […] The minimum bactericidal concentration (MBC) and fungicidal concentration (MFC) were determined by spreading 100 µL of culture from each well onto a plate (Mueller–Hinton agar for bacteria, Sabouraud dextrose agar for fungi except S. cerevisiae, and YPAD for S. cerevisiae).

[2] = tested on: Candida albicans ATCC 10231; assay: antimicrobial serial microdilution, C. albicans; format: cell-based; conditions: for MIC: Candida albicans, ATCC10231, serial microdilution, 35 °C, 48 h
Experimental: as §1, §2

[3] = tested on: S. cerevisiae (backgrounds W303 and BY4741); assay: antimicrobial serial microdilution, S. cerevisiae; format: cell-based, Saccharomyces cerevisiae; conditions: for MIC: read-out: MIC S. cerevisiae
Experimental: as §1, §2

[4] = tested on: Enterococcus faecalis ATCC 29212; assay: antimicrobial serial microdilution, E. faecalis; format: cell-based
Experimental: as §1, §2

[5] = tested on: Staphylococcus aureus ATCC 29213; assay: antimicrobial serial microdilution, S. aureus; format: cell-based; conditions: for MIC: Staphylococcus aureus, ATCC29213, serial microdilution, 37 °C, 24 h
Experimental: as §1, §2

[6] = tested on: Escherichia coli ATCC 25922; assay: antimicrobial serial microdilution, E. coli; format: cell-based
Experimental: as §1, §2

[7] = tested on: S. cerevisiae wild-type (W303 and BY4741 backgrounds); assay: drop test, wild-type yeast; format: cell-based, Saccharomyces cerevisiae
Experimental: Since the Schiff bases have a limited solubility in dimethyl sulfoxide (DMSO), first, we tested the toxicity of DMSO against the selected microorganism. […] Wild-type cells from W303 background seem to be more resistant, and sensitivity is observed at around 4% DMSO.
(§3) Next, we wanted to evaluate the oxidative activity. To do this, drop test assays were performed with wild-type (W303 and BY4741 backgrounds) and sod1 (BY4741 background) yeast cells in the presence of 200 µg/mL of the analyzed Schiff bases (Figure 3). The SOD1 gene encodes superoxide dismutase 1, an enzyme with a major role in detoxifying ROS species generated during metabolism or because of environmental exposure. sod1 mutant cells are unprotected against oxidative agents, decreasing survival in their presence. […] Also, wild-type cells are shown as control, unaffected by the Schiff bases.
(§4) For the drop test with S. cerevisiae, wild-type strain (background W303), and wild type and sod1 mutant cells (background BY4741) were grown overnight in YPAD media until an optical density of 0.5 at 600 nm was reached (equivalent to 1 × 10^7 cells/mL). Three serial dilutions were prepared and 5 µL of each was spotted onto a plate (approximately 1 × 10^5, 1 × 10^4, 1 × 10^3, and 1 × 10^2 cells/spot). YPAD plates were supplemented with 200 µg/mL of each Schiff base, and one plate supplemented with 2% DMSO and one plate with YPAD without any drug were used as controls. Plates were incubated at 25 °C for 24, 48, and 72 h.

S. cerevisiae [8] = tested on: S. cerevisiae; parameters: method as in PMID 24028688; conditions: published data; cited from earlier work
P. aeruginosa ATCC 27853 = assay: antimicrobial serial microdilution, P. aeruginosa; format: cell-based; conditions: Pseudomonas aeruginosa, ATCC27853, 37 °C, 24 h
Experimental: as §1, §2

[9] = tested on: promastigotes from L. mexicana (M379); assay: leishmanicidal activity, MTT colorimetric assay; format: cell-based; conditions: Leishmania mexicana, 48 h exposure, 1% DMSO
Experimental: Leishmanicidal activities of all Schiff bases were evaluated by measuring promastigote mitochondrial activity using MTT colorimetric assay as described previously. […] The medium was renewed every four days. Parasite density was determined in a Neubauer chamber.
Into each well of a 96-well cell culture dish was dispensed 1 × 10^6 parasites. A stock solution of each of the Schiff Base was prepared in DMSO, and serial dilutions were added to the parasite suspension, keeping the solvent concentration at 1%. The final volume was 100 µL for each well and triplicate conditions were carried out. Pentamidine treatment (100 µg/mL) and untreated parasites were used as positive control and negative control, respectively. After exposure to the compounds for 48 h in culture medium, 10 µL of a solution of 5 mg/mL MTT dissolved in PBS was added to each well. […] Later, the plate was centrifuged at 4400 rpm for 10 min and the culture medium was then aspirated. Next, 100 µL of DMSO were added into each well to solubilize the formazan and the plate was shaken for 5 min. The colored formazan salt was measured by recording changes in absorbance at 570 nm using a microplate reader, a BioTek Synergy HT spectrophotometer. A reference wavelength of 630 nm was used to subtract background. Optical densities were analyzed as the quantity of formazan is directly proportional to the number of viable parasites. Data were analyzed with the statistical software GraphPad Prism.

[10] = DPPH radical scavenging assay; format: biochemical; conditions: for IC50: 30 min, room temperature, dark, absorbance 515 nm
Experimental: This was used immediately. The experimental procedure was adapted from the literature. Briefly, in a 96-well plate, 100 µL of solution of DPPH (2, 2-diphenyl-1-picrylhydrazyl) radical (0.2 mM in methanol) was added to 100 µL of methanolic solutions of 3a–j, 4, or 5, prepared as serial two-fold dilutions from the stock solution. Standards were also prepared in the same concentrations.
The percentage of DPPH scavenging was then calculated by using the following formula: % DPPH scavenging=100∗Asample+DPPH−Asample blank/ADPPH−Asolvent

RAW 264.7 cells = assay: cell viability, MTT dye assay; format: cell-based, murine; conditions: 48 h
Experimental: The specificity and selectivity for the pathogen target is a key point for any potential drug.
The medium was renewed once a week. The viability was determined using MTT (thiazolyl blue tetrazolium bromide) dye assay as described previously for leishmanicidal activity assessment, with some variations. Here, 5 × 10^4 cells/well in a final volume of 100 µL were deposited into a 96-well plate in triplicate. Saponin (2 and 4 mg/mL) and untreated cells were used as the positive control and negative control, respectively. Schiff bases were dissolved in DMSO to obtain different serial concentrations (0.01–2000 µM). […] Cells were pelleted by centrifugation at 4400 rpm for 10 minutes and the media was removed. Next, 100 µL/well of DMSO were added and the absorbance at 570 nm was recorded. A reference wavelength of 630 nm was used for background subtraction.

[11] = tested on: S. cerevisiae wild type (BY4741); assay: growth inhibition (OD600) of wild-type yeast, oxidative effect; format: cell-based, Saccharomyces cerevisiae; conditions: unit not given
Experimental: (§5) Next, we wanted to evaluate the oxidative activity. To do this, drop test assays were performed with wild-type (W303 and BY4741 backgrounds) and sod1 (BY4741 background) yeast cells in the presence of 200 µg/mL of the analyzed Schiff bases (Figure 3). The SOD1 gene encodes superoxide dismutase 1, an enzyme with a major role in detoxifying ROS species generated during metabolism or because of environmental exposure. sod1 mutant cells are unprotected against oxidative agents, decreasing survival in their presence.
(§6) (A) Drop test of serial dilution of yeast cell cultures (wild type from genetic background W303, wild type from genetic background BY4741, and sod1 mutant from genetic background BY4741) exposed to Schiff bases at 200 µg/mL. A control without drug and with 2% DMSO are included.
as §2

[12] = tested on: S. cerevisiae sod1 mutant (BY4741); assay: growth inhibition (OD600) of sod1 mutant yeast, oxidative effect; format: cell-based, Saccharomyces cerevisiae; conditions: sod1 mutant BY4741, unit not given
Experimental: as §5, §6, §2

[13] = tested on: S. cerevisiae sod1 mutant cells (background BY4741); assay: drop test, sod1 mutant yeast; format: cell-based, Saccharomyces cerevisiae; conditions: 200 µg/mL, 48 h, 25 °C, compared to control
Experimental: as §3, §4

S. cerevisiae [14] = assay: biocidal/biostatic evaluation, plating on drug-free media, S. cerevisiae; format: cell-based, Saccharomyces cerevisiae; conditions: 24 h exposure, then plated on media free of drug
Experimental: as §2, with “cells.” for “cells. Plates were fitted with a tight lid before incubation to prevent desiccation.”

[15] = Saccharomyces cerevisiae, serial microdilution, 35 °C, 48 h
[16] = Enterococcus faecalis, ATCC29212, serial microdilution, 37 °C, 24 h
[17] = Escherichia coli, ATCC25922, serial microdilution, 37 °C, 24 h
[18] = noninhibitory concentration, serial microdilution, 37 °C, 24 h

Row | SMILES | MIC [1] [µg/mL] | MIC [2] [µg/mL] | MIC [3, 15] [µg/mL] | MIC [4, 16] [µg/mL] | MIC [5] [µg/mL] | MIC [6, 17] [µg/mL] | MIC (P. aeruginosa ATCC 27853) [µg/mL] | IC50 [9] [µM] | IC50 [10] [µM] | melting point [°C] | other results
1 | C[S+](C)[O-] [DMSO, dimethyl sulfoxide] | – | – | – | – | – | – | – | – | – | – | IC50 DMSO A. niger ([1]; DMSO toxicity): 4.36 ± 2.0%; MIC DMSO A. niger ([1]; DMSO toxicity): 19.22 ± 1.3%; NIC DMSO A. niger ([1]; DMSO toxicity): 1.78 ± 0.4%; IC50 DMSO C. albicans ([2]; DMSO toxicity): 8.50 ± 0.5%; MIC DMSO C. albicans ([2]; DMSO toxicity): 14.98 ± 0.6%; NIC DMSO C. albicans ([2]; DMSO toxicity): 4.94 ± 0.5%; IC50 DMSO S. cerevisiae ([3]; DMSO toxicity): 35.62 ± 1.0%; MIC DMSO S. cerevisiae ([3]; DMSO toxicity): 71.47 ± 1.7%; NIC DMSO S. cerevisiae ([3]; DMSO toxicity): 5.04 ± 1.1%; IC50 DMSO E. faecalis ([4]; DMSO toxicity): 8.66 ± 0.6%; MIC DMSO E. faecalis ([4]; DMSO toxicity): 20.02 ± 1.3%; NIC DMSO E. faecalis ([4]; DMSO toxicity): 3.68 ± 0.2%; IC50 DMSO S. aureus ([5]; DMSO toxicity): 20.36 ± 5.2%; MIC DMSO S. aureus ([5]; DMSO toxicity): 32.64 ± 6.9%; NIC DMSO S. aureus ([5]; DMSO toxicity): 8.52 ± 0.9%; NIC DMSO E. coli ([6]; DMSO toxicity): 11.95 ± 2.9%; DMSO concentration at which cells begin to show diminished viability (drop test) ([7]; wild-type cells, BY4741 strain): ≥ 3%; DMSO concentration at which sensitivity is observed (drop test) ([7]; wild-type cells, W303 background): around 4%; DMSO concentration significantly toxic for S. cerevisiae (S. cerevisiae [8]): over 2%
2 | COc1ccc(C=Nc2c(C)n(C)n(-c3ccccc3)c2=O)cc1O [Compound 3e, 4-(3-Hydroxy-4-methoxybenzylideneamino)-1,5-dimethyl-2-phenyl-1H-pyrazol-3(2H)-one] | > 200 | > 200 | > 200 | > 200 | > 200 | > 200 | > 200 | > 200 | > 200 | 246.8 to 247.2 | % Live Cells (RAW 264.7 cells; RAW 264.7, exposure to 300 µM (limited solubility)): 27.1 ± 0.8%
3 | Cc1c(N=Cc2ccccc2)c(=O)n(-c2ccccc2)n1C [Compound 3a, 4-Benzylideneamino-1,5-dimethyl-2-phenyl-1H-pyrazol-3(2H)-one] | > 200 | > 200 | > 200 | 32.3 ± 11.7 (≈ 111 µM) | > 200 | > 200 | > 200 | > 200 | > 200 | 176.8 to 177.2 | IC50 [4, 16]: 12.2 µg/mL (≈ 41.9 µM); NIC E. faecalis [4, 18]: 3.6 ± 0.7 µg/mL; % Live Cells (RAW 264.7 cells; RAW 264.7, exposure to 400 µM): 27.1 ± 3.4%
4 | Cc1c(N=CC=Cc2ccccc2)c(=O)n(-c2ccccc2)n1C [Compound 5, 4-Phenylallylideneamino-1,5-dimethyl-2-phenyl-1H-pyrazol-3(2H)-one] | > 200 | > 200 | 76.7 ± 5.7 (≈ 242 µM) | > 200 | > 200 | 22.6 ± 14.1 (≈ 71.2 µM) | > 200 | 81.5 ± 12.5 | > 200 | 165.5 to 165.9 | IC50 ([3]; Saccharomyces cerevisiae, serial microdilution, 35 °C, 48 h, read-out: IC50 S. cerevisiae (converted)): 22.8 µg/mL (≈ 71.8 µM); NIC S. cerevisiae ([3]; noninhibitory concentration, serial microdilution, 35 °C, 48 h): 6.6 ± 0.7 µg/mL; IC50 [6, 17]: 12.4 µg/mL (≈ 39.1 µM); NIC E. coli [6, 18]: 5.1 ± 2.4 µg/mL; antioxidant activity detected in the DPPH assay ([10]; statement in words): no significant antioxidant activity; NIC Wt [11]: 22.6 ± 0.6; MIC Wt ([11]; in µg/mL): 65.2 ± 0.2; NIC sod1 [12]: 19.5 ± 0.8; MIC sod1 ([12]; in µg/mL): 39.4 ± 0.9; effect on wild-type cells in drop test ([7]; 200 µg/mL, 48 h, 25 °C): unaffected; sensitivity of sod1 cells in drop test [13]: sensitive; inhibitory mechanism (fungicidal or fungistatic) (S. cerevisiae [14]): fungicidal
5 | COc1cc(C=Nc2c(C)n(C)n(-c3ccccc3)c2=O)cc(OC)c1O [Compound 3j, 4-(4-Hydroxy-3,5-dimethoxybenzylideneamino)-1,5-dimethyl-2-phenyl-1H-pyrazol-3(2H)-one] | > 200 | > 200 | > 200 | > 200 | > 200 | > 200 | > 200 | > 200 | 15.7 ± 3.2 | 259.2 to 260.7 | –
